Measurements as given in patent EP4775208A1, “USE OF PRMT5 INHIBITOR IN TREATMENT OF TUMORS OR CANCERS” (Apeiron Therapeutics (Hong Kong) Ltd., priority 2023, dated 2025).

What was measured:
[1] = system: HCT-116 MTAP(-/-) deficient cells; assay: Inhibition of proliferation of HCT-116 MTAP(-/-) deficient cells (Cell-Titer Glo); type: cell-based; details: 8 days
Protocol: Test 1: Compound's inhibitory activity on proliferation of HCT-116 MTAP(-/-) deficient cells.
Materials and Cells: HCT-116 MTAP(-/-) deficient cells obtained from Kyinno Bio (China); RPMI-1640 medium, fetal bovine serum, and penicillin-streptomycin purchased from Thermo Fisher Scientific (America); 384-well plates from PerkinElmer (America); Cell-Titer Glo assay kit from Promega (America).
Cell Culture: HCT116 MTAP(-/-) deficient cells were cultured in RPMI 1640 medium containing 10% fetal bovine serum and 1% penicillin-streptomycin at 37°C, 5% CO2. Only cells in logarithmic growth phase were used for experiments.
(§1) Cell Proliferation Inhibition Assay: The compound's inhibitory activity on HCT-116 MTAP(-/-) deficient cells was assessed using the Cell-Titer Glo assay kit. Adjusting cell concentration, 40 µL was seeded into a 384-well plate and cultured overnight at 37°C, 5% CO2. Each well received 40 nL of the compound, achieving concentrations from 0 to 10,000 nM (starting concentration 10,000 nM, 3-fold dilution, 10 points), with 0.1% DMSO. The cell plate was incubated for 8 days at 37°C, 5% CO2. Cell-Titer Glo reagent (40 µL) was added to measure cell viability.

[2] = system: HCT-116 MTAP wild-type cells; assay: Inhibition of proliferation of HCT-116 MTAP wild-type cells (Cell-Titer Glo); type: cell-based; details: 8 days
Protocol: Test 2: Compound's inhibitory activity on proliferation of HCT-116 MTAP wild-type cells.
Materials and Cells: HCT-116 MTAP wild-type cells obtained from Kyinno Bio (China); RPMI-1640 medium, fetal bovine serum, and penicillin-streptomycin purchased from Thermo Fisher Scientific (America); 384-well plates from PerkinElmer (America); Cell-Titer Glo assay kit from Promega (America).
Cell Culture: HCT116 MTAP wild-type cells were cultured in RPMI 1640 medium containing 10% fetal bovine serum and 1% penicillin-streptomycin at 37°C, 5% CO2. Only cells in logarithmic growth phase were used for experiments.
as §1, with “MTAP wild-type” for “MTAP(-/-) deficient”

Compound	IC50 ([1]; Homo sapiens, HCT-116, 192 h)	IC50 ([2]; Homo sapiens, HCT-116, 192 h)	IC50 [1]	IC50 [2]
CC1OC[C@@H](N(C)C(=O)c2cc3c(cn2)nc(N)c2cncn23)c2ccc(F)cc21 (stereo partly drawn) [Example 62, 4-amino-N-((4S)-7-fluoro-1-methylisochroman-4-yl)-N-methyli midazo[1,5-a]pyrido[3,4-e]pyrazine-8-carb oxamide]	19.7 nM	3710 nM	–	–
CN(C(=O)c1cc2c(cc1Cl)nc(N)c1cncn12)[C@@H]1COc2ccc(F)cc21 [Example 63, (S)-4-amino-7-chloro-N-(5-fluoro-2,3-dihydrobenzofuran-3-yl)-N-methylimidazo[1,5-a] quinoxaline-8-carbox amide]	46.8 nM	3260 nM	–	–
Cc1ncn2c1c(N)nc1ccc(C(=O)N(C)[C@@H]3COc4ccc(F)cc43)cc12 [Example 64, (S)-4-amino-N-(5-fluoro-2,3-dihydrobenzofuran-3-yl)-N,3-dimet hylimidazo[1,5-a]quin oxaline-8-carboxamide]	278 nM	> 20000 nM	–	–
N#Cc1ccc2c(c1)OCC2N(C(=O)c1ccc2nc(N)c3cncn3c2c1)C1CC1 (centres unmarked) [Example 65, 4-amino-N-(6-cyano-2,3-dihydrobenzofuran-3-yl)-N-cyclopropyl imidazo[1,5-a]quinox aline-8-carboxamide]	95.3 nM	5950 nM	–	–
CN(C(=O)c1ccc2nc(N)c3cncn3c2c1)[C@@H]1COc2ccc(F)cc21 [Example 66, (S)-4-amino-N-(5-fluoro-2,3-dihydrobenzofuran-3-yl)-N-methyli midazo[1,5-a]quinoxa line-8-carboxamide]	2260 nM	> 20000 nM	–	–
Nc1nc2cnc(C(=O)N(C3CC3)C3COc4cc(C(F)(F)F)ccc43)cc2n2cncc12 (centres unmarked) [Example 67, 4-amino-N-cyclopropyl-N-(6-(trifluoromethyl)-2,3-dihydrobenzof uran-3-yl)imidazo[1,5-a]pyrido[3,4-e]pyrazine-8-carboxamide]	35.6 nM	3640 nM	–	–
CN(C(=O)c1ccc2nc(N)c3cncn3c2c1)[C@@H]1COc2cc(F)ccc21 [Example 68, (S)-4-amino-N-(6-fluoro-2,3-dihydrobenzofuran-3-yl)-N-methyli midazo[1,5-a]quinoxa line-8-carboxamide]	382 nM	8570 nM	–	–
Cc1ncn2c1c(N)nc1ccc(C(=O)N(C3CC3)C3COc4cc(C(F)(F)F)ccc43)cc12 (centres unmarked) [Example 69, 4-amino-N-cyclopropyl-3-methyl-N-(6-(trifluoromethyl)-2,3-dihydrobenzofuran-3-yl)i midazo[1,5-a]quinoxa line-8-carboxamide]	87.1 nM	5020 nM	–	–
Cc1ncc(-c2ccc3c(c2)OCC3N(C(=O)c2ccc3nc(N)c4cncn4c3c2)C2CC2)cn1 (centres unmarked) [Example 72, 4-amino-N-cyclopropyl-N-(6-(2-methylpyrimidin-5-yl)-2,3-dihydrobenzofuran-3-yl)imi dazo[1,5-a]quinoxaline-8-carboxamide]	117 nM	> 20000 nM	–	–
Nc1nc2ccc(C(=O)N(C3CC3)C3COc4cc(C(F)(F)F)ccc43)cc2n2cncc12 (centres unmarked) [Example 73, 4-amino-N-cyclopropyl-N-(6-(trifluoromethyl)-2,3-dihydrobenzof uran-3-yl)imidazo[1,5-a]quinoxaline-8-carb oxamide]	55.5 nM	4620 nM	–	–
Nc1nc2ccc(C(=O)N(C3CC3)C3COc4cc(Br)ccc43)cc2n2cncc12 (centres unmarked) [Example 74, 4-amino-N-(6-bromo-2,3-dihydrobenzofuran-3-yl)-N-cyclopropyl imidazo[1,5-a]quinox aline-8-carboxamide]	–	–	148 nM	5990 nM
CN(C(=O)c1ccc2nc(N)c3cncn3c2c1)[C@@H]1COc2cc(NS(=O)(=O)C(F)(F)F)ccc21 [Example 76, (S)-4-amino-N-methyl-N-(6-((trifluoromethyl)sulfonamido)-2,3-dihydrobenzofuran-3-yl)imida zo[1,5-a]quinoxaline-8-carboxamide]	> 3000 nM	> 10000 nM	–	–
CC1OC[C@@H](N(C)C(=O)c2ccc3nc(N)c4cncn4c3c2)c2cc(F)ccc21 (stereo partly drawn) [Example 77, 4-amino-N-((4S)-6-fluoro-1-methylisochroman-4-yl)-N-methylimidazo[1,5-a]quinoxaline-8-carboxamide]	101 nM	4260 nM	–	–
CC1OC[C@@H](N(C)C(=O)c2ccc3nc(N)c4cncn4c3c2)c2cccnc21 (stereo partly drawn) [Example 108, 4-amino-N-methyl-N-((5S)-8-methyl-5,8-di hydro-6H-pyrano[3,4-b]pyridin-5-yl)imidaz o[1,5-a]quinoxaline-8-carboxamide]	121 nM	> 10000 nM	–	–
CCOC(=O)c1ncn2c1c(N)nc1ccc(C(=O)N(C)C3COc4cc(C(F)(F)F)ccc43)cc12 (centres unmarked) [Example 109, ethyl 4-amino-8-(methyl(6-(trifluoromethyl)-2,3-dihydrobenzofuran-3-yl)carbamoyl)imidazo[1,5-a]quinoxaline-3-carboxylate]	> 3000 nM	9090 nM	–	–
CN(C(=O)c1cc2c(cc1F)nc(N)c1cncn12)C1CCOc2cc(C(F)(F)F)cnc21 (centres unmarked) [Example 110, 4-amino-7-fluoro-N-methyl-N-(7-(trifluoromethyl)-3,4-dihydro-2 H-pyrano[3,2-b]pyridin-4-yl)imidazo[1,5-a] quinoxaline-8-carbox amide]	> 3000 nM	> 10000 nM	–	–
CN(C(=O)c1ccc2nc(N)c3cnc(Br)n3c2c1)[C@@H]1COc2cc(C(F)(F)F)ccc21 [Example 111, (S)-4-amino-1-bromo-N-methyl-N-(6-(trifluoromethyl)-2,3-dihydrobenzofuran-3-yl)imidazo[1,5-a]quinoxaline-8-carboxamide]	500 nM	> 10000 nM	–	–
CN(C(=O)c1ccc2nc(N)c3cncn3c2c1)[C@@H]1COc2cc(C(F)F)ccc21 [Example 112, (S)-4-amino-N-(6-(difluoromethyl)-2,3-dihydrobenzofuran-3-yl)-N-methylimidazo[1,5-a]quinoxaline-8-carboxamide]	338 nM	> 10000 nM	–	–
CN(C(=O)c1cc2c(cc1F)nc(N)c1cncn12)[C@@H]1CCOc2cc(-c3cnn(C)c3)ccc21 [Example 114, (R)-4-amino-7-fluoro-N-methyl-N-(7-(1-methyl-1H-pyrazol-4-yl)chroman-4-yl)imidazo [1,5-a]quinoxaline-8-c arboxamide]	146 nM	> 10000 nM	–	–
CN(C(=O)c1cc2c(cc1F)nc(N)c1cncn12)[C@@H]1CCOc2cc(-c3ccnn3C)ccc21 [Example 115, (R)-4-amino-7-fluoro-N-methyl-N-(7-(1-methyl-1H-pyrazol-5-yl)chroman-4-yl)imidazo[1,5-a]quinoxaline-8-carboxamide]	84.3 nM	> 10000 nM	–	–
Cc1cc(-c2ccc3c(c2)OCC[C@H]3N(C)C(=O)c2cc3c(cc2F)nc(N)c2cncn23)on1 [Example 116, (R)-4-amino-7-fluoro-N-methyl-N-(7-(3-methylisoxazol-5-yl)chroman-4-yl)imidazo[1,5-a]quinoxaline-8-carb oxamide]	109 nM	> 10000 nM	–	–
CN(C(=O)c1ccc2nc(N)c3cnc(C4CC4)n3c2c1)[C@@H]1COc2cc(C(F)(F)F)ccc21 [Example 118, (S)-4-amino-1-cyclopro pyl-N-methyl-N-(6-(trifluoromethyl)-2,3-dihydrobenzofuran-3-yl)imida zo[1,5-a]quinoxaline-8-carboxamide]	2930 nM	> 10000 nM	–	–
Nc1nc2cc(F)c(C(=O)N(C3CC3)C3COc4cc(N5CCOCC5)ccc43)cc2n2cncc12 (centres unmarked) [Example 121, 4-amino-N-cyclopropyl-7-fluoro-N-(6-mor pholino-2,3-dihydrobenzofuran-3-yl)imidaz o[1,5-a]quinoxaline-8-carboxamide]	73.7 nM	> 10000 nM	–	–
CN(C(=O)c1cc2c(cn1)nc(N)c1cncn12)C1CCc2ccccc21 (centres unmarked) [Example 125, 4-amino-N-(2,3-dihydro-1H-inden-1-yl)-N-methylimidazo[1,5-a] pyrido[3,4-e]pyrazine-8-carboxamide]	2450 nM	> 10000 nM	–	–
Nc1nc2ncc(C(=O)N(C3CC3)C3COc4cc(C(F)(F)F)ccc43)cc2n2cncc12 (centres unmarked) [Example 126, 4-amino-N-cyclopropyl-N-(6-(trifluoromethyl)-2,3-dihydrobenzof uran-3-yl)imidazo[1,5-a]pyrido[2,3-e]pyrazine-8-carboxamide]	592 nM	> 20000 nM	–	–
